For 15 molecules, Bliss interaction score results are on record in the supplement of paper PMC10627819.

The test system of this experiment is S. aureus DSM 20231. Kind of experiment: Bliss interaction score (quartile over a dose matrix) (fitness difference); higher = more antagonism (negative = synergy). Put shortly:
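Growth was read as OD595 when cultures entered stationary phase, and each value was divided by the plate's robust no-drug mean and capped at 1. This normalised ratio is the fitness value, and fitness for each single drug came from the combination data. The Bliss score subtracts the expected fitness, taken as the product, from the observed fitness and is given as quartiles across technical, biological and donor/recipient replicates.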
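Note: first quartile when negative (synergy) and third quartile when positive (antagonism).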

For `CC(=O)OC[C@H]1O[C@@H]([S-])[C@H](OC(C)=O)[C@@H](OC(C)=O)[C@@H]1OC(C)=O.CCP(CC)CC.[Au+]` [Auranofin] + CC(=O)Oc1cccc2c1C(=O)c1c(OC(C)=O)cc(C(=O)O)cc1C2=O [Diacerein], the Bliss interaction score is -0.466.

As to `CC(=O)OC[C@H]1O[C@@H]([S-])[C@H](OC(C)=O)[C@@H](OC(C)=O)[C@@H]1OC(C)=O.CCP(CC)CC.[Au+]` [Auranofin] + C[C@H]1C[C@@H]2[C@H]([C@@H](O)C[C@@]3(C)[C@H]2CC[C@]3(O)C(=O)CO)[C@@]2(C)C=CC(=O)C=C12 [Methylprednisolone], the Bliss interaction score worked out at 0.162.

As for `CCc1oc2ccccc2c1C(=O)c1cc(Br)c(O)c(Br)c1` [Benzbromarone] + C1=CC(=CC(=C1)Cl)NN=C(C#N)C#N [CCCP], the Bliss interaction score is -0.103. As to `CCc1oc2ccccc2c1C(=O)c1cc(Br)c(O)c(Br)c1` [Benzbromarone] + CC(C1CCC(C(O1)OC2C(CC(C(C2O)OC3C(C(C(CO3)(C)O)NC)O)N)N)N)NC [Gentamicin], the Bliss interaction score (main component drawn) was 0.189. `CCc1oc2ccccc2c1C(=O)c1cc(Br)c(O)c(Br)c1` [Benzbromarone] + N[C@@H]1CONC1=O [CycloserineD]: the Bliss interaction score was -0.109. With `CCc1oc2ccccc2c1C(=O)c1cc(Br)c(O)c(Br)c1` [Benzbromarone] + O=C(O[C@@H]1Cc2c(O)cc(O)cc2O[C@@H]1c1cc(O)c(O)c(O)c1)c1cc(O)c(O)c(O)c1 [EGCG], the Bliss interaction score is -0.139.

Take `O=C(N[C@H](CO)[C@H](O)c1ccc([N+](=O)[O-])cc1)C(Cl)Cl` [Chloramphenicol] + CC(=O)Oc1cccc2c1C(=O)c1c(OC(C)=O)cc(C(=O)O)cc1C2=O [Diacerein]: the Bliss interaction score is -0.41. Still for that read-out and setting: as for `O=C(N[C@H](CO)[C@H](O)c1ccc([N+](=O)[O-])cc1)C(Cl)Cl` [Chloramphenicol] + CCCSc1nc(N[C@@H]2C[C@H]2c2ccc(F)c(F)c2)c2nnn([C@@H]3C[C@H](OCCO)[C@@H](O)[C@H]3O)c2n1 [Ticagrelor], the figure is -0.239; as for `O=C(N[C@H](CO)[C@H](O)c1ccc([N+](=O)[O-])cc1)C(Cl)Cl` [Chloramphenicol] + C[C@H]1C[C@@H]2[C@H]([C@@H](O)C[C@@]3(C)[C@H]2CC[C@]3(O)C(=O)CO)[C@@]2(C)C=CC(=O)C=C12 [Methylprednisolone], -0.204; as for `CC[C@H]1OC(=O)[C@H](C)[C@@H](O[C@H]2C[C@@](C)(OC)[C@@H](O)[C@H](C)O2)[C@H](C)[C@@H](O[C@@H]2O[C@H](C)C[C@H](N(C)C)[C@H]2O)[C@](C)(OC)C[C@@H](C)C(=O)[C@H](C)[C@@H](O)[C@]1(C)O` [Clarithromycin] + CC(C)Cc1ccc(C(C)C(=O)O)cc1 [Ibuprofen], -0.171.

In the case of `CC[C@H]1OC(=O)[C@H](C)[C@@H](O[C@H]2C[C@@](C)(OC)[C@@H](O)[C@H](C)O2)[C@H](C)[C@@H](O[C@@H]2O[C@H](C)C[C@H](N(C)C)[C@H]2O)[C@](C)(OC)C[C@@H](C)C(=O)[C@H](C)[C@@H](O)[C@]1(C)O` [Clarithromycin] + CN1CCC[C@H]1c1cccnc1 [Nicotine], the Bliss interaction score is -0.223. The same measure, in the same setting: as for `CC[C@H]1OC(=O)[C@H](C)[C@@H](O[C@H]2C[C@@](C)(OC)[C@@H](O)[C@H](C)O2)[C@H](C)[C@@H](O[C@@H]2O[C@H](C)C[C@H](N(C)C)[C@H]2O)[C@](C)(OC)C[C@@H](C)C(=O)[C@H](C)[C@@H](O)[C@]1(C)O` [Clarithromycin] + C[C@H]1C[C@@H]2[C@H]([C@@H](O)C[C@@]3(C)[C@H]2CC[C@]3(O)C(=O)CO)[C@@]2(C)C=CC(=O)C=C12 [Methylprednisolone], the figure is -0.275.

With `CC[C@H]1OC(=O)[C@H](C)[C@@H](O[C@H]2C[C@@](C)(OC)[C@@H](O)[C@H](C)O2)[C@H](C)[C@@H](O[C@@H]2O[C@H](C)C[C@H](N(C)C)[C@H]2O)[C@](C)(OC)C[C@@H](C)C(=O)[C@H](C)[C@@H](O)[C@]1(C)O` [Clarithromycin] + Cc1c(Cl)cccc1Nc1ccccc1C(=O)O [Tolfenamic], the Bliss interaction score is -0.245.

Regarding `CC[C@H]1OC(=O)[C@H](C)[C@@H](O[C@H]2C[C@@](C)(OC)[C@@H](O)[C@H](C)O2)[C@H](C)[C@@H](O[C@@H]2O[C@H](C)C[C@H](N(C)C)[C@H]2O)[C@](C)(OC)C[C@@H](C)C(=O)[C@H](C)[C@@H](O)[C@]1(C)O` [Clarithromycin] + O=C(O)Cc1cc(I)c(Oc2ccc(O)c(I)c2)c(I)c1 [Tiratricol], the Bliss interaction score turned out to be 0.192. The same measure, in the same setting: as for `CCC[C@@H]1C[C@@H](C(=O)N[C@@H]([C@H]2O[C@H](SC)[C@H](O)[C@@H](O)[C@H]2O)[C@H](C)Cl)N(C)C1` [Clindamycin] + CC(C)Cc1ccc(C(C)C(=O)O)cc1 [Ibuprofen], the figure is -0.231.
